This is an account of results in article PMC11367644, “Structural basis for TNIP1 binding to FIP200 during mitophagy” (The Journal of Biological Chemistry, 2024).

In assay [1] the target is T1, FIP200 claw domain K1568E (Homo sapiens, UniProt Q8TDY2, K1568E).
T1 construct: human FIP200 claw domain1490–1594 was cloned; SUMO (N, cleaved yes); made in house; host or cells: Escherichia coli Rosetta (DE3)
Description: ITC with FIP200 claw domain mutant K1568E. The following applies: 20 °C, buffer B pH 7.0, N.D. = no detectable binding. As to the method:
(§1) DNA fragment of human FIP200 claw domain1490–1594 was cloned into a modified pET28a (Novagen) plasmid, which contained an N-terminal SUMO-tag and a ULP1 protease cleavage site. All mutants were generated using a MutanBEST Kit (TaKaRa) and confirmed by DNA sequencing. The proteins were expressed in Escherichia coli Rosetta (DE3) cells (Novagen) cultured in LB medium at 37 °C to A600 = 1.0 and then shifted to 16 °C for 24 h after induction with 0.2 mM IPTG. Bacterial pellets were resuspended in buffer A (50 mM NaH2PO4 and 1 M NaCl, pH 7.0) and lysed by sonication. The crude lysate was then centrifuged at 14,000 rpm for 30 min at 4 °C. The supernatant was applied to a Ni-NTA column (QIAGEN), followed by size-exclusion chromatography using a Superdex 200 (GE Healthcare) column. After cleavage with ULP1 protease overnight at 16 °C to remove the SUMO-tag, an additional purification step was performed with a HiTrap SP FF column. The purified protein was concentrated to ∼20 mg/ml in buffer B (50 mM NaH2PO4, 150 mM NaCl, pH 7.0) and stored at −80 °C.
(§2) ITC assays were performed on a Microcal PEAQ-ITC instrument (Malvern) at 20 °C. The concentrations of proteins were determined spectrophotometrically. […] Thermodynamic data were analyzed with a single binding site model using MicroCal PEAQ-ITC Analysis Software provided by the manufacturer (Malvern).

Assay [2] deals with T2, FIP200 claw domain K1569A (Homo sapiens, UniProt Q8TDY2, K1569A).
T2 construct: human FIP200 claw domain1490–1594 was cloned; SUMO (N, cleaved yes); made in house; host or cells: Escherichia coli Rosetta (DE3)
T2 sequence (Q8TDY2 1490-1594 K1569A): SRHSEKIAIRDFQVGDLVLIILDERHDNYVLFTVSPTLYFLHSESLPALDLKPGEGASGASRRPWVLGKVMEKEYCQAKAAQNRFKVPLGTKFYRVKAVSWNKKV
Put plainly: ITC with FIP200 claw domain mutant K1569A. The following applies: 20 °C, buffer B pH 7.0, N.D. = no detectable binding. As to the method:
as §1, §2

Square brackets hold non-standard residues; d marks the D form. Peptide text beside a SMILES is read from it. pS = N[C@@H](COP(=O)(O)O)C(=O)O

T1 sequence (Q8TDY2 1490-1594 K1568E): as the sequence (Q8TDY2 1490-1594 K1569A) above, with K79E, A80K counted along it

`CC(C)[C@H](NC(=O)[C@H](CCC(=O)O)NC(=O)[C@H](Cc1ccccc1)NC(=O)[C@H](CCC(=O)O)NC(=O)[C@H](COP(=O)(O)O)NC(=O)[C@H](CO)NC(=O)[C@@H](NC(=O)CNC(=O)[C@H](CO)NC(=O)[C@@H](N)CO)[C@@H](C)O)C(=O)N[C@H](C(=O)N[C@H](C(=O)N1CCC[C@H]1C(=O)N[C@@H](CCC(=O)O)C(=O)N[C@@H](CCC(=O)O)C(=O)N[C@@H](CCC(N)=O)C(=O)O)[C@@H](C)O)C(C)C` [TNIP1_pS123^ long] (H-SSGTS[pS]EFEVVTPEEQ-OH): the KD result in assay [1] and in assay [2] was “Weak binding” in each case.
